Laboratory results taken from patent US20250161312A1, “A METHOD FOR THE TREATMENT OF CHEMOTHERAPEUTIC DRUG-INDUCED NEPHROTOXICITY” (INSTITUT NATIONAL DE LA SANTÉ ET DE LA RECHERCHE MÉDICALE, priority 2022, published 2025).

Tests used:
[1] = tested on: H1975 cells; experiment: Immunoblot quantification in H1975 cells; assay type: cell-based; settings: 20 μM cisplatin, 10 nM KW6002, 24 hours
Protocol: FIG. 7. […] Caspase 3/-7 activity (n=3 independent experiments) (A) and the number of γH2AX nuclear foci (n=36-63 nuclei/group) (B) were determined. […] Results are expressed as the mean±SEM (n=3 independent experiments). (E) Tail moment was assessed by comet assay. A total of 50 cells per condition were analyzed. *** P<0.001; 1-way ANOVA followed by Tukey's post hoc test. […] (I) KW6002 increased yH2AX expression in tumors from mice of the LLC1 syngeneic model. Quantification of nuclear yH2AX expression.
Cells and tissues were homogenized using RIPA buffer (Sigma) supplemented with protease and phosphatase inhibitors (Pierce). 10 μg of total proteins were heated for 10 min at 70° C. and loaded on NuPAGE Novex gels (Thermo Fisher Scientific). After transfer of proteins to nitrocellulose membranes, membranes were blocked with 5% milk in TBS-tween followed by incubation with anti-cleaved caspase 3 (1/1000; #9661, Cell Signaling) or anti-cleaved PARP1 (1/1000; #5625, Cell Signaling) primary antibodies. Visualization of protein was achieved by using horseradish peroxidase-coupled secondary antibodies (1/2000; #7074, Cell signaling). Detection signal was performed by using the ECL select chemiluminescent kit (GE Healthcare) and Image Quant LAS 4000 (GE Healthcare). Data were analyzed with Image J. Membranes were probed with anti-GAPDH (glyceraldehyde-3-phosphate deshydrogenase) antibody as normalizer (G9545, Sigma).

[2] = tested on: LLC1 tumors in C57BL6/J mice; experiment: LLC1 in vivo tumor model (syngeneic, sub-chronic cisplatin)
Protocol: FIG. 1. Schematic representation of the different animal procedures. (A) Acute cisplatin-induced kidney injury. […] (B) Sub-chronic cisplatin-induced kidney injury. […] (C) KW-6002 administration schedule in the acute model. […] (D) KW-6002 administration schedule in the sub-chronic model.
LLC1 cells (Lewis Lung Cancer cells, ATCC® CRL-1642™) were cultured in DMEM with 10% fetal calf serum and penicillin-streptomycin. LLC1 cells ([…]) in PBS: matrigel (1:1, for a total volume of 100 μL) were subcutaneously injected in the right flank of animals. Tumors were measured twice a week with calipers and their volumes were estimated using the following equation: ½ (length×width2).
Prior sacrifice by cervical dislocation, retro-orbital blood samples were collected in heparinized tubes and centrifuged for 10 min at 2000 rpm at room temperature. Renal function was assessed by Blood urea nitrogen (BUN) measurement using a AU480 Chemistry Analyzer (Beckman Coulter). At the time of sacrifice, kidneys or LLC1 tumors were harvested and stored in either “RNA later” solution (Thermo Fisher), 4% neutral buffered formalin or snap-frozen in liquid nitrogen.
Paraffin-embedded sections (3 μm thick) were deparaffinized with xylene and rehydrated in successive ethanol dilutions. Then, antigen retrieval was done by incubation in sub-boiling 10 mM sodium citrate buffer. Tissues were permeabilized in a 0.4% Triton X-100 solution, and nonspecific binding was blocked with a 5% BSA solution in TBS for 2 hours. Sections were then incubated overnight with an anti-γH2AX antibodies (1:50; no. 9718, Cell Signaling Technology). After washing, the secondary antibody (A10042) was incubated for 45 minutes at room temperature. Again, after washing, the nuclei were stained with a 300 nM DAPI solution (D1306, Life Technologies, Thermo Fisher Scientific). The slides were analyzed using a Zeiss LSM 880 confocal microscope. Quantification was performed using ImageJ. For immunofluorescence studies in free-floating sections, mice were deeply anesthetized with pentobarbital sodium (50 mg/kg, i.p.) and then transcardially perfused with cold NaCl (0.9%) and 4% paraformaldehyde in PBS (pH 7.4). Kidneys were removed, post-fixed for 24 hours in 4% paraformaldehyde, and cryoprotected in 30% sucrose before being frozen at −40° C. in isopentane (methyl-butane) and stored at −80° C. Longitudinal kidney sections (40 μm) were obtained using a Leica cryostat. Free-floating sections were stored in PBSazide (0.2%) at 4° C. Longitudinal kidney sections were incubated with a donkey serum (D9663, MilliporeSigma) at 10% in PBS Triton X-100 (0.2%) for 1 hour and then incubated with anti-A2AR primary antibody (1:50; GP-Af1000, Frontiers Institute) for 72 hours at 4° C. in Signal Boost (8114, Cell Signaling Technology). Alexa Fluor 568-conjugated secondary antibodies (1:500; Life Technologies, Thermo Fisher Scientific) were incubated overnight at room temperature. Lectin staining was performed by incubating sections for 1 hour at room temperature with Lotus tetragonolobus FITC conjugate (Vector Laboratories, FL-1321-2) diluted to 2 μg/mL in blocking medium. Sections were counterstained with DAPI (1:5,000; no. 62247, Thermo Fisher Scientific) and mounted on superfrost slides and left to dry. Then, they were covered with Vectashield Vibrance Antifade Mounting Medium (H-1700, Vector Laboratories). Images were acquired using a Zeiss LSM 710 confocal laser-scanning microscope at ×20 magnification. 3D reconstruction of confocal image stacks was performed using Imaris software (Bitplane).
Reverse transcription was performed on 1 μg of RNA using high-capacity cDNA reverse transcription kit (Thermo Fisher), according the manufacturer's recommendation. Real time PCR was performed on a StepOne device using Taqman Gene Expression Master Mix (Thermo Fisher), following manufacturer's recommendations. […]

[3] = tested on: RPTEC/hTERT cells; experiment: Red Oil staining of RPTEC/hTERT cells; assay type: cell-based, human; settings: cisplatin 50 μM, 25 μM KW-6002, 48 hours
Protocol: FIG. 6. KW6002 alleviates the cisplatin-induced nephrotoxicity associated with apoptosis, lipid metabolism, and oxidative stress. (A) Tail moment assessed by comet assay; 50 cells/condition were analyzed. (B and C) KW6002 attenuates cisplatin-induced renal lipid accumulation, assessed by Red Oil staining. […] Results are the mean±SEM (n=6-9 mice/group). (F-H) KW6002 attenuated cisplatin-induced oxidative stress in RPTEC/hTERT1 cells. (F and G) Gene expression of Nrf2 (F) and HO1 (G). […] Results are the mean±SEM (n=3 independent experiments).
10 μm frozen kidney mouse sections were fixed with ethanol (60%) then incubated for 15 min with Oil Red O Solution (Fisher Biotech) dissolved in isopropanol. After several washes with ddH2O, samples were incubated 3 min with hematoxylin. Lipid droplets are stained in red whereas nuclei appeared blue. […] RPTEC/hTERT cells were fixed with ethanol (60%) then incubated for 15 min with Oil Red O Solution. The cells were washed three times with ddH2O and incubated 3 min with hematoxylin. Coverslips were rinsed with H2O before mounting on microscope slides using glycerol gelatin aqueous slide mounting medium (Sigma). Quantifications were performed blindly using ImageJ software. […] The resulting red color images were quantified using a custom threshold (0.173 for RPTEC/hTERT cells and 0.140 for kidney stainings).

CCn1c(=O)c2c(nc(/C=C/c3ccc(OC)c(OC)c3)n2C)n(CC)c1=O [KW-6002, 8-[(E)-2-(3,4-dimethoxyphenyl)vinyl]-1,3-diethyl-7-methyl-3,7-dihydro-1H-purine-2,6-dione]
apoptosis: caspase 3 ([1]; FIG. 7C): did not impede the antitumoral effect of cisplatin
apoptosis: PARP ([1]; FIG. 7D): even potentiated the efficacy of cisplatin
cell cycle: cyclin D1 ([1]; FIG. 7G): did not impede the antitumoral effect of cisplatin
cell cycle: PCNA ([1]; FIG. 7H): even potentiated the efficacy of cisplatin
cisplatin accumulation (platinum levels) in the kidney ([2]; KW-6002-treated mice, FIG. 4A): lowered
cisplatin accumulation (platinum levels) in the tumors ([2]; KW-6002-treated mice, FIG. 4B): remained unchanged
anti-tumoral response to cisplatin (tumor size) ([2]; co-treatment with cisplatin, FIG. 3): did not compromise the anti-tumoral response to cisplatin
cisplatin-induced DNA damage, H2AX+ cells in tumors ([2]; in vivo LLC1 syngeneic model): increased number of H2AX+ cells
expression of some efflux transporters in kidneys ([2]; qPCR, FIG. 4A): significantly increased
transporter expression in tumors ([2]; qPCR, FIG. 4B): no expression changes
ability to protect from cisplatin-induced kidney injury ([2]; tumor-bearing mice): preserved
lipid accumulation induced by cisplatin [3]: significantly reduced
